Converted amounts (≈) assume the structure as drawn. “Also recorded” adds a separate entry of the source. Square brackets hold non-standard residues; d marks the D form. Peptide text beside a SMILES is read from it. * marks the point of attachment. FITC = O=C1OC2(c3ccc(O)cc3Oc3cc(O)ccc32)c2ccc(NC(=S)*)cc21; Bip = N[C@@H](Cc1ccc(-c2ccccc2)cc1)C(=O)O; Dip = N[C@H](C(=O)O)C(c1ccccc1)c1ccccc1; Ahx = NCCCCCC(=O)O
Tests used:
[1] = tested on: C. albicans American Type Culture Collection (ATCC) 10,231; assay type: cell-based, Candida albicans; settings: American Type Culture Collection (ATCC) 10,231, 24 h
Description: C. albicans (ATCC 10231) from the American Type Culture Collection (Manassas, VA, USA) was cultured at 28 °C on SD agar plates.
To determine the minimum inhibitory concentration (MIC) values of the FITC conjugated-P-113 peptides and their derivatives, a broth microdilution assay was used. Overnight-grown cultures of C. albicans in SD broth were sub-cultured for several hours and subsequently diluted to a final concentration of 5 × 10^4 CFU/mL in Mueller Hinton (MH) broth and LYM broth. A total of 100 μL of diluted microbe was transferred into each well of a 96-well plate, into which a 1 μL dilution series of peptides in sterile water (ranging from 50 to 0.78 μg/mL) was previously added. After incubation for 24 h at 28 ℃, the MIC value of P-113 peptides was determined as the lowest concentration at which no change in optical density was observed. The experiment was conducted three times, and average values were reported.

C. albicans [2] = assay: Confocal laser microscopy, localization of FITC peptides; assay type: cell-based, Candida albicans; settings: 50 μM FITC-conjugated peptide, 10^7 CFU/mL, SD broth, 28 °C, 5 min
Description: Firstly, 10^7 CFU/mL of C. albicans was incubated with 0.25 mM FITC P-113 and 0.25 mM FITC alone (as a negative control) in SD broth at 28 °C for 1, 2, 3, 4, 5, and 6 h. Another experiment was performed to observe the short-term localization of Bip-P-113 and Dip-P-113 peptides. Briefly, log-phase C. albicans cultures were resuspended to a cell density of 10^7 CFU/mL in SD broth and treated for 5 min at 28 °C with 50 μM FITC-conjugated P-113, Bip-P-113, and Dip-P-113. After centrifugation, the cells were washed three times with 20 mM phosphate buffer (pH 7.4) to remove nonbinding peptides and fixed with 4% (w/v) paraformaldehyde in 20 mM phosphate buffer (pH 7.4) at room temperature for 20 min. Following fixation, the cells were centrifuged at 3500× g for 5 min, resuspended in phosphate buffer, and loaded onto a glass slide with a 1.4% solid agarose bed. The images were taken with a confocal laser scanning microscope (LSM 510 META, Carl Zeiss, Jena, Germany) equipped with a 40× C-Apochromat water-immersion objective lens (Carl Zeiss, Jena, Germany).

C. albicans [3] = assay: Scanning electron microscopy, cell morphology; assay type: cell-based, Candida albicans; settings: 50 μM peptide, 10^7 CFU/mL, SD broth, 28 °C, 5 min
Description: Time-course morphological studies of C. albicans were performed by scanning electron microscopy (SEM). Overnight cultures of C. albicans were sub-cultured and grown in SD broth. Then, 10^7 CFU/mL of C. albicans was treated with 0.25 mM P-113 in SD broth at 28 °C. Samples were collected following 1, 2, 3, 4, 5, and 6 h of incubation. Another experiment was performed to observe the morphological changes caused over in a short time caused by Bip-P-113 and Dip-P-113. Briefly, 10^7 CFU/mL of C. albicans in SD broth was treated for 5 min at 28 °C with 50 μM P-113, Bip-P-113, and Dip-P-113. After harvest, cells were resuspended in fixation solution (2.5% glutaraldehyde in 20 mM phosphate buffer pH 7.4) and then placed on Thermanox substrate-coated cover slips at 4 °C for 12 h. The cover slips were carefully washed three times with 20 mM phosphate buffer (pH 7.4), followed by incubation in post-fixation solution (1% OsO4 in 20 mM phosphate buffer pH 7.4) at room temperature for an hour. After being washed three times with 20 mM phosphate buffer (pH 7.4), the cover slips were air-dried for an hour by dehydration with a graded series of ethanol. Samples were gold-coated and observed under an S-4700 field-emission (FE)-SEM (Hitachi, Ltd., Tokyo, Japan) at an acceleration voltage of 5 kV.

[4] = histidine residues replaced with non-natural amino acids; cited from earlier work
C. albicans [5] = assay: Flow cytometry, fluorescence of cells incubated with FITC peptides; assay type: cell-based, Candida albicans; settings: 50 μM FITC peptide, 5 × 10^6 CFU/mL, SD broth, 28 °C, 30 min, n = 3
Description: Firstly, 5 × 10^6 CFU/mL of C. albicans cells were incubated with 50 µM FITC P-113, FITC N-terminal truncated P-113, and FITC C-terminal truncated P-113 peptides for 30 min at 28 °C in SD broth. The resuspended cell pellets described above were also used for flow cytometry experiments. Flow cytometric cell sorting was performed (10,000 events/sample) by using flow cytometry (BD Accuri™ C6 Plus Flow Cytomete, BD Biosciences, NJ, USA). The quantitative data were analyzed by Prism software.

C. albicans [6] = assay: Fluorescence microscopy, localization of FITC truncated peptides; assay type: cell-based, Candida albicans; settings: 50 μM FITC peptide, 10^7 CFU/mL, SD broth, 28 °C, 30 min
Description: Firstly, 10^7 CFU/mL of C. albicans cells were incubated with 50 µM FITC N-terminal truncated P-113, FITC C-terminal truncated P-113 peptides, and FITC alone for 30 min at 28 °C in SD broth. After incubation, the cells were centrifuged at 3500× g for 5 min and then washed three times with 20 mM phosphate buffer (pH 7.4) to remove unbound peptides. The resulting pellets were resuspended and immobilized on the glass slips with a 1.4% solid agarose bed. Fluorescence images were captured using an inverted fluorescence microscope (ECLIPSE E400, Nikon, Tokyo, Japan) with a camera (AxioCam ICc5, ZEISS, Jena, Germany).

Candida albicans = assay type: cell-based; settings: 1× MIC, 30 min, SD broth, 28 °C, 5 × 10^4 CFU/mL, normal salt conditions, triplicate
Description: Figure 7 Time killing activity of FITC-labeled P-113 peptide and its FITC-labeled derivatives against Candida albicans. Cells were treated with 1× MIC of (a) P-113 (black circle), FITC-labeled N-terminal truncated P-113 (black square), FITC-labeled C-terminal truncated P-113 (black triangle), and (b) treated with FITC-labeled Bip-P-113 (white square), and FITC-labeled Dip-P-113 (white triangle). Killed cells (%) = (cell number in peptide-free control − cell number in sample)/(cell number in peptide-free control) × 100. Error bars represent the standard errors of the mean.
C. albicans were cultivated onto Sabouraud dextrose agar plates overnight and sub-cultured twice before time killing assays. A total of 5 × 10^4 CFU/mL of C. albicans cells were treated with 1× MIC of FITC-conjugated P-113 peptides and their derivatives in SD broth for 10, 20, 30, 60, and 120 min at 28 °C. After that time, serial dilutions (1:10) of the incubation mixtures were added onto SD agar. The numbers of CFU were counted after 24 h of incubation at 28 °C. The percentage of killed cells was calculated by comparison with the number of cells in a control sample incubated without P-113 peptide. The assays were performed in triplicate.

[7] = 10^7 CFU/mL of C. albicans in SD broth; settings: C. albicans (ATCC 10231), 301 K, up to 24 h
[8] = 10^7 CFU/mL of C. albicans + 0.5 mM pepstatin A; settings: C. albicans (ATCC 10231), 301 K, up to 24 h

Row | MIC, LYM Control [1] | MIC, MH Broth [1] | Compound | Cellular localization of FITC peptide (C. albicans [2]) | Cell surface morphology (SEM), short exposure (C. albicans [3]) | Degradation in serum [4] | also measured
1 | 25 µg/mL (≈ 13.4 µM) | >50 µg/mL | N=C(N)NCCC[C@H](NC(=O)CCCCCNC(=S)Nc1ccc2c(c1)C(=O)OC21c2ccc(O)cc2Oc2cc(O)ccc21)C(=O)N[C@@H](Cc1c[nH]cn1)C(=O)N[C@@H](Cc1c[nH]cn1)C(=O)NCC(=O)N[C@@H](Cc1ccc(O)cc1)C(=O)N[C@@H](CCCCN)C(=O)N[C@@H](CCCNC(=N)N)C(=O)N[C@@H](CCCCN)C(=O)N[C@@H](Cc1ccccc1)C(=O)N[C@@H](Cc1c[nH]cn1)C(N)=O [N-ter truncated P-113] ({FITC-Ahx}-RHHGYKRKFH-NH2; N-terminus assumed) |  |  |  | 
2 |  |  | C[C@H](NC(=O)CCCCCNC(=S)Nc1ccc2c(c1)C(=O)OC21c2ccc(O)cc2Oc2cc(O)ccc21)C(=O)N[C@@H](CCCCN)C(=O)N[C@@H](CCCNC(=N)N)C(=O)N[C@H](C(=O)N[C@H](C(=O)NCC(=O)N[C@@H](Cc1ccc(O)cc1)C(=O)N[C@@H](CCCCN)C(=O)N[C@@H](CCCNC(=N)N)C(=O)N[C@@H](CCCCN)C(=O)N[C@@H](Cc1ccccc1)C(=O)N[C@H](C(N)=O)C(c1ccccc1)c1ccccc1)C(c1ccccc1)c1ccccc1)C(c1ccccc1)c1ccccc1 [Dip-P-113] ({FITC-Ahx}-AKR[Dip][Dip]GYKRKF[Dip]-NH2; N-terminus assumed) | accumulated on the surface of cells and did not translocate into the cytoplasm | became rippled and showed deep pore formation | protects | 
3 | 50 µg/mL (≈ 28.1 µM) | >50 µg/mL | C[C@H](NC(=O)CCCCCNC(=S)Nc1ccc2c(c1)C(=O)OC21c2ccc(O)cc2Oc2cc(O)ccc21)C(=O)N[C@@H](CCCCN)C(=O)N[C@@H](CCCNC(=N)N)C(=O)N[C@@H](Cc1c[nH]cn1)C(=O)N[C@@H](Cc1c[nH]cn1)C(=O)NCC(=O)N[C@@H](Cc1ccc(O)cc1)C(=O)N[C@@H](CCCCN)C(=O)N[C@@H](CCCNC(=N)N)C(=O)N[C@@H](CCCCN)C(N)=O [C-ter truncated P-113] ({FITC-Ahx}-AKRHHGYKRK-NH2; N-terminus assumed) |  |  |  | Fluorescence intensity of cells compared with cells incubated with intact P-113 (C. albicans [5]): dramatic decrease in fluorescence intensity; Green fluorescence in cells compared with N-terminal truncated P-113 (C. albicans [6]): less green fluorescence
4 |  |  | C[C@H](NC(=O)CCCCCNC(=S)Nc1ccc2c(c1)C(=O)OC21c2ccc(O)cc2Oc2cc(O)ccc21)C(=O)N[C@@H](CCCCN)C(=O)N[C@@H](CCCNC(=N)N)C(=O)N[C@@H](Cc1ccc(-c2ccccc2)cc1)C(=O)N[C@@H](Cc1ccc(-c2ccccc2)cc1)C(=O)NCC(=O)N[C@@H](Cc1ccc(O)cc1)C(=O)N[C@@H](CCCCN)C(=O)N[C@@H](CCCNC(=N)N)C(=O)N[C@@H](CCCCN)C(=O)N[C@@H](Cc1ccccc1)C(=O)N[C@@H](Cc1ccc(-c2ccccc2)cc1)C(N)=O [Bip-P-113] ({FITC-Ahx}-AKR[Bip][Bip]GYKRKF[Bip]-NH2; N-terminus assumed) | accumulated on the surface of cells and did not translocate into the cytoplasm | became rippled and showed deep pore formation | protects | Reduction in cell viability (Candida albicans): 99%
5 |  |  | AKRHHGYKRKFH |  |  |  | cleaved bond [7]: Lys10-Phe11, first_seen, 1 h; also recorded: Tyr7-Lys8, 2–3 h; also recorded: Lys8-Arg9; not cleaved [8]: no noticeable changes in ^1H-^15N HSQC chemical shifts in the presence of pepstatin A (24 h)

Reference: paper PMC7178208 (International Journal of Molecular Sciences, 2020)
